Like-named read-outs stand apart in the source and are kept apart here. Each block holds one molecule with its values, some of them ahead of it.
Columns and labels:
HEK293 cells [1] = assay: ROS production in intact HEK293 cells (DCFDA, flow cytometry); type: cell-based, human; details: 5 mM, 48 hours, absence and presence of pluronic acid 0.1%
Experimental: The ability of test compounds to impact ROS production in intact HEK293 cells after 48 hours exposure was assessed.
HEK293 cells were stained with 2′,7′-dichlorofluorescein diacetate (DCFDA; 10 μM, 30 minutes, 37° C.). The cells were then washed and resuspended to 250×10^5/ml. The stained HEK293 cells were seeded into a 24 well plate ([…]) in DMEM supplemented with 10% FCS, antibiotics and L-glutamine. Drugs at indicated concentrations were added followed by incubation for 48 hours at 37° C. before HEK293 cells were washed, trypsinised and resuspended in PBS prior to analysis for ROS production by flow cytometry.

HEK293 cells [2] = assay: Cell death assay in HEK293 cells (PI staining, flow cytometry); type: cell-based, human; details: HEK293, 5 mM, 48 hours, in the presence of pluronic acid 0.1%
Experimental: The ability of test compounds to impact cell death in HEK293 cells after 48 hours exposure was assessed.
HEK293 cells were seeded into a 24 well plate ([…]) in DMEM supplemented with 10% FCS, antibiotics and L-glutamine. Drugs at indicated concentrations were added followed by incubation for 48 hours at 37° C. before HEK293 cells were washed, trypsinised and resuspended in PBS prior to PI staining (0.1 μg/ml) before analysis of PI+ ve cells by flow cytometry.

[3] = test system: A2780/cis [cisplatin ovarian resistant line]; assay: Combination with cisplatin, A2780/cis; type: cell-based
MCF7 [Breast] = assay: Combination with cisplatin, MCF-7; type: cell-based, human
[4] = test system: human mitochondria isolated from HEK293 cells; assay: ROS production in isolated mitochondria (DCFDA); type: biochemical; details: isolated HEK293 mitochondria, 100 μM, 120 mins
Experimental: The ability of test compounds to impact ROS production in isolated mitochondria after 120 mins exposure was assessed.
Mitochondria were isolated from harvested human embryonic kidney (HEK293) cells (20×10^6) using a commercial kit (Thermo Scientific) before re-suspension in PBS to a final volume of 800 μL. […] Independent experiments (each assessing the impact of all four compounds along with a positive [AAPH; 5.0 mM] and vehicle control) were repeated three times.

A2780 [ovarian] = assay: Combination with cisplatin, A2780; type: cell-based
[5] = test system: HT-29 colon adenocarcinoma; assay: MTT in vitro cytotoxicity, HT-29; type: cell-based; details: Homo sapiens, 240 h, HT-29, 10 day exposure
Experimental: (§1) All were stored in the dark at 4° C. An accurately weighed amount of each compound was dissolved in DMSO and Hank's Balanced Salt Solution (Sigma) according to Table 2 below:
(§2) Further dilutions were made in complete RPMI1640 cell culture medium (RPMI1640 cell culture medium supplemented with 10% foetal bovine serum, 1 mM L-glutamine, and 2 mM sodium pyruvate (all from Sigma)).
(§3) H460 non-small cell lung adenocarcinoma, HT-29 colon adenocarcinoma and MCF-7 breast adenocarcinoma (ECACC, Salisbury, Wiltshire) were used for analysis. Cells were cultured in complete RPMI1640 cell culture medium, and maintained as monolayer cultures at 37° C. in a humidified 5% CO2 environment.
(§4) Tumour cell growth inhibition was assessed using the MTT assay with a standard 96 hour plus an extended 10 day incubation. For the 96 hour assay 1×10^4 cells were inoculated into each well of a 96-well plate and incubated overnight at 37° C. in a humidified atmosphere containing 5% CO2 to give time to adhere to the wells and form a monolayer. For the 10 day incubation, 1×102 (H460 and HT-29) and 1×103 (MCF-7) cells were inoculated. The next day, culture medium was removed from each well and replaced with cell culture media for the untreated control, or media containing compound, and the plates then incubated for a further 96 hours or 10 days. […] After 96 hours or 10 days culture medium was removed and 200 μL of 0.5 mgmL-1 MTT solution (Sigma) in complete medium added to each well. Following a further 4 hours incubation, the solution was removed from each well and 150 μL of DMSO added to solubilise the formazan crystals resulting from MTT conversion. Absorbance values for the resulting solutions were read at 550 nm on a Multiskan Ex microplate reader (Thermo Fisher, Loughborough, UK) and cell survival calculated as the absorbance of treated cells divided by the control. Results are expressed in terms of IC50 values (i.e. concentration of compound required to kill 50% of cells), which were determined manually in Microsoft Excel from plots of concentration versus percentage cell survival, and all experiments were performed in triplicate.

M 14 [melanoma] = assay: Combination with cisplatin, M14; type: cell-based
[6] = test system: MCF-7 breast adenocarcinoma; assay: MTT in vitro cytotoxicity, MCF-7; type: cell-based, human; details: Homo sapiens, MCF7, 240 h, MCF-7, 10 day exposure
Experimental: as §1, §2, §3, §4

[7] = test system: H460 non-small cell lung adenocarcinoma; assay: MTT in vitro cytotoxicity, H460; type: cell-based; details: Homo sapiens, NCI-H460, 240 h, H460, 10 day exposure
Experimental: as §1, §2, §3, §4

[8] = Redox potential study, square wave voltammetry; type: physicochemical; details: 0.1 mol dm-3 LiNTf2, 20° C., first scan
Experimental: BioAnalytical Systems CV50W potentiostat (from BAS Inc., USA)
Square wave voltammetry (4 mV step, 25 mV pulse, 10 Hz SW frequency)
3 mm diameter glassy carbon working electrode (from BAS)
3 mm diameter glassy carbon counter electrode (from BAS)
Saturated calomel reference electrode (SCE, from Sycopel Scientific Ltd., UK)
0.1 mol dm-3 lithium bis(trifluoromethanesulphonyl)imide ((LiNTf2)CAS 90076-65-6, from 3M)
Voltammograms were recorded from 0.5 V to −1.2 V in deoxygenated solutions of the Compounds.

dog = details: cited from earlier work
rat = details: oral; cited from earlier work
[9] = test system: cells (depending on the cell studied); details: read-out: LC 50, in vitro; cited from earlier work
[10] = test system: Modified mouse fibroblasts Nrf2−/−; details: cited from earlier work
[11] = compound 1 μM + cisplatin 10 μM
[12] = compound 3 μM + cisplatin 10 μM
[13] = compound 10 μM + cisplatin 10 μM
[14] = compound 10 μM + cisplatin 1 μM
[15] = compound 10 μM + cisplatin 3 μM
[16] = highest concentration 30 μM, read-out: IC50 Run 1
[17] = highest concentration 100 μM, read-out: IC50 Run 2
[18] = highest concentration 100 μM, read-out: IC50 Run 3
[19] = mean of runs, read-out: IC50 Mean

SMILES: CC(C)(N=NC(C)(C)C(=N)N)C(=N)N.Cl.Cl [AAPH]
ROS production (HEK293 cells [1]): induced ROS production in the absence and presence of pluronic acid
cell death (PI staining) (HEK293 cells [2]): inducedcell death in HEK293 cells in 2/3 experiments

Reduction potential 1 [8]: −0.460 V vs. SCE
Reduction potential 2 [8]: −0.932 V vs. SCE
SMILES: OCc1ccc2[n+](c1)CC[n+]1ccccc1-2 [Compound B, 3-(hydroxymethyl)-6,7-dihydrodipyrido[1,2-a:2′,1′-c]pyrazine-5,8-diium bistrifluoromethanesulfonate]
% cell survival [3, 11]: 32.1%
% cell survival ([3]; compound 1 μM + cisplatin 30 μM): 6.5%
% cell survival ([3]; compound 1 μM + cisplatin 100 μM): 0%
% cell survival ([3]; compound 1 μM, cisplatin 0 μM): 74.4%
% cell survival [3, 12]: 24.2%
% cell survival ([3]; compound 3 μM + cisplatin 30 μM): 8.1%
% cell survival ([3]; compound 3 μM + cisplatin 100 μM): 3.3%
% cell survival ([3]; compound 3 μM, cisplatin 0 μM): 44.7%
% cell survival [3, 13]: 9%
% cell survival ([3]; compound 10 μM + cisplatin 30 μM): 5%
% cell survival ([3]; compound 10 μM + cisplatin 100 μM): 2.1%
% cell survival ([3]; compound 10 μM, cisplatin 0 μM): 15.4%
% cell survival (MCF7 [Breast]; compound 1 μM + cisplatin 0.1 μM): 87.3%
% cell survival (MCF7 [Breast]; compound 1 μM + cisplatin 0.3 μM): 77.9%
% cell survival (MCF7 [Breast]; compound 1 μM + cisplatin 1 μM): 72.3%
% cell survival (MCF7 [Breast]; compound 1 μM, cisplatin 0 μM): 76.2%
% cell survival (MCF7 [Breast]; compound 3 μM + cisplatin 0.1 μM): 81.4%
% cell survival (MCF7 [Breast]; compound 3 μM + cisplatin 0.3 μM): 73.2%
% cell survival (MCF7 [Breast]; compound 3 μM + cisplatin 1 μM): 74.3%
% cell survival (MCF7 [Breast]; compound 3 μM, cisplatin 0 μM): 69.1%
% cell survival (MCF7 [Breast]; compound 10 μM + cisplatin 0.1 μM): 63.7%
% cell survival (MCF7 [Breast]; compound 10 μM + cisplatin 0.3 μM): 51.7%
% cell survival (MCF7 [Breast]; [14]): 46.3%
% cell survival (MCF7 [Breast]; compound 10 μM, cisplatin 0 μM): 67.3%
rank order of efficacy (ROS production) [4]: F>G>B>A
ROS production relative to vehicle treatment ([4]; room temperature): a more modest increase
% cell survival (A2780 [ovarian]; compound 1 μM + cisplatin 1 μM): 55.2%
% cell survival (A2780 [ovarian]; compound 1 μM + cisplatin 3 μM): 20.3%
% cell survival (A2780 [ovarian]; [11]): 5.5%
% cell survival (A2780 [ovarian]; compound 1 μM, cisplatin 0 μM): 88.5%
% cell survival (A2780 [ovarian]; compound 3 μM + cisplatin 1 μM): 46.3%
% cell survival (A2780 [ovarian]; compound 3 μM + cisplatin 3 μM): 18.3%
% cell survival (A2780 [ovarian]; [12]): 5.4%
% cell survival (A2780 [ovarian]; compound 3 μM, cisplatin 0 μM): 59%
% cell survival (A2780 [ovarian]; [14]): 20.4%
% cell survival (A2780 [ovarian]; [15]): 11.7%
% cell survival (A2780 [ovarian]; [13]): 3.9%
% cell survival (A2780 [ovarian]; compound 10 μM, cisplatin 0 μM): 35.7%
IC50 [5, 16]: 1.8 µM
IC50 [5, 17]: 1.2 µM
IC50 [5, 18]: 1.8 µM
IC50 [5, 19]: 1.6 µM
% cell survival (M 14 [melanoma]; compound 1 μM + cisplatin 1 μM): 88.4%
% cell survival (M 14 [melanoma]; compound 1 μM + cisplatin 3 μM): 83.8%
% cell survival (M 14 [melanoma]; [11]): 58.4%
% cell survival (M 14 [melanoma]; compound 1 μM, cisplatin 0 μM): 93.2%
% cell survival (M 14 [melanoma]; compound 3 μM + cisplatin 1 μM): 78.9%
% cell survival (M 14 [melanoma]; compound 3 μM + cisplatin 3 μM): 72%
% cell survival (M 14 [melanoma]; [12]): 47.1%
% cell survival (M 14 [melanoma]; compound 3 μM, cisplatin 0 μM): 79.7%
% cell survival (M 14 [melanoma]; [14]): 55.7%
% cell survival (M 14 [melanoma]; [15]): 50.2%
% cell survival (M 14 [melanoma]; [13]): 33.4%
% cell survival (M 14 [melanoma]; compound 10 μM, cisplatin 0 μM): 59.2%
IC50 [6, 16]: 2.7 µM
IC50 [6, 17]: 2.3 µM
IC50 [6, 18]: 5.9 µM
IC50 [6, 19]: 3.6 µM
IC50 [7, 16]: 4.7 µM
IC50 [7, 17]: 4.7 µM
IC50 [7, 18]: 5 µM
IC50 [7, 19]: 4.8 µM

SMILES: c1cc[n+]2c(c1)-c1cccc[n+]1CC2 [Diquat]
LD50 dog (dog; in vivo, po): 100 to 200 mg/kg
LD50 rat (rat): 231 mg/kg
CC50 [9]: 40 to 180 µM
sensitivity to diquat compared to normal unmodified [wildtype] cells [10]: approximately a fourfold increase in sensitivity

SMILES: COc1cccc2c1C(=O)c1c(O)c3c(c(O)c1C2=O)C[C@@](O)(C(=O)CO)C[C@@H]3O[C@H]1C[C@H](N)[C@H](O)[C@H](C)O1 [Doxorubicin]
LD50 dog (dog; oral): 2.0 mg/kg
LD50 rat (rat): 12.5 mg/kg

SMILES: CN(Cc1cnc2nc(N)nc(N)c2n1)c1ccc(C(=O)N[C@@H](CCC(=O)O)C(=O)O)cc1 [Methotrexate]
LD50 dog (dog; oral): 120 mg/kg
LD50 rat (rat): 180 to 320 mg/kg
